Measurements as given in patent US20240059671A1, “TYROSINE KINASE 2 (TYK2) DEGRADATION COMPOUNDS AND METHODS OF USE” (CULLGEN (SHANGHAI), INC., priority 2020, published 2024).
“Also recorded” adds a separate entry of the source.

Tests used:
Type in all cases: cell-based
[1] = system: phosphorylation of STAT1 (Tyr701) and STAT3 (Tyr705); assay: IFNα-induced STAT1/3 phosphorylation in Jurkat cells by immunoblotting; conditions: 3 or 30 nM, 16 hours, then IFNα (2000 IU) for 15 min
Experimental: (§1) Jurkat cells were treated with DMSO or a dose range of heterobifunctional compounds CPD-155, CPD-158, and CPD-164 at 3 or 30 nM concentrations for 16 hours. Cells were subsequently treated with IFNα (2000 IU) for 15 min as indicated.
(§2) Rabbit anti-JAK1antibody (3344S), anti-JAK2 antibody (3230S), anti-JAK3 antibody (8827S), anti-TYK2 antibody (14193S), anti-STAT1 antibody (9167S), anti-STAT3 antibody (9139S), anti-phospho-STAT1 (Tyr701) antibody ([…]), anti-phospho-STAT3 (Tyr705) antibody (9145S), were purchased from Cell Signaling Technology; anti-β-actin antibody (ab8226) was from Abeam; HRP-conjugated anti-α-Tubulin (GNI4310-AT) antibody was purchased from GNI. Media and other cell culture reagents were purchased from Thermo Fisher.
(§3) Cultured cells were washed with cold PBS once and lysed in cold RIPA buffer supplemented with protease inhibitors and phosphatase inhibitors (Beyotime Biotechnology). The solutions were then incubated at 4° C. for 30 minutes with gentle agitation to fully lyse cells. Cell lysates were centrifuged at 13,000 rpm for 10 minutes at 4° C. and pellets were discarded. Total protein concentrations in the lysates were determined by BCA assays (Beyotime Biotechnology). Cell lysates were mixed with Laemmli loading buffer to 1× and heated at 99° C. for 5 min. Proteins were resolved on SDS-PAGE and visualized by chemiluminescence. Images were taken by a ChemiDoc MP Imaging system (Bio-Rad). Protein bands were quantitated using the accompanied software provided by Bio-Rad.

TYK2 [2] = biological target: T1, TYK2 (Homo sapiens, UniProt P29597); assay: TYK2 protein degradation in NOMO-1 cells by immunoblotting; design: endogenous in cells; conditions: for TYK2 Degradation (NOMO-1, 10 nM) / TYK2 Degradation (NOMO-1, 100 nM): NOMO-1 cells; for Reduction of TYK2 protein levels over a dose range (FIG. 2): NOMO-1 cells, 0.1, 1, 10, 100 and 1000 nM, 16 hours
T1 sequence (P29597 whole entry): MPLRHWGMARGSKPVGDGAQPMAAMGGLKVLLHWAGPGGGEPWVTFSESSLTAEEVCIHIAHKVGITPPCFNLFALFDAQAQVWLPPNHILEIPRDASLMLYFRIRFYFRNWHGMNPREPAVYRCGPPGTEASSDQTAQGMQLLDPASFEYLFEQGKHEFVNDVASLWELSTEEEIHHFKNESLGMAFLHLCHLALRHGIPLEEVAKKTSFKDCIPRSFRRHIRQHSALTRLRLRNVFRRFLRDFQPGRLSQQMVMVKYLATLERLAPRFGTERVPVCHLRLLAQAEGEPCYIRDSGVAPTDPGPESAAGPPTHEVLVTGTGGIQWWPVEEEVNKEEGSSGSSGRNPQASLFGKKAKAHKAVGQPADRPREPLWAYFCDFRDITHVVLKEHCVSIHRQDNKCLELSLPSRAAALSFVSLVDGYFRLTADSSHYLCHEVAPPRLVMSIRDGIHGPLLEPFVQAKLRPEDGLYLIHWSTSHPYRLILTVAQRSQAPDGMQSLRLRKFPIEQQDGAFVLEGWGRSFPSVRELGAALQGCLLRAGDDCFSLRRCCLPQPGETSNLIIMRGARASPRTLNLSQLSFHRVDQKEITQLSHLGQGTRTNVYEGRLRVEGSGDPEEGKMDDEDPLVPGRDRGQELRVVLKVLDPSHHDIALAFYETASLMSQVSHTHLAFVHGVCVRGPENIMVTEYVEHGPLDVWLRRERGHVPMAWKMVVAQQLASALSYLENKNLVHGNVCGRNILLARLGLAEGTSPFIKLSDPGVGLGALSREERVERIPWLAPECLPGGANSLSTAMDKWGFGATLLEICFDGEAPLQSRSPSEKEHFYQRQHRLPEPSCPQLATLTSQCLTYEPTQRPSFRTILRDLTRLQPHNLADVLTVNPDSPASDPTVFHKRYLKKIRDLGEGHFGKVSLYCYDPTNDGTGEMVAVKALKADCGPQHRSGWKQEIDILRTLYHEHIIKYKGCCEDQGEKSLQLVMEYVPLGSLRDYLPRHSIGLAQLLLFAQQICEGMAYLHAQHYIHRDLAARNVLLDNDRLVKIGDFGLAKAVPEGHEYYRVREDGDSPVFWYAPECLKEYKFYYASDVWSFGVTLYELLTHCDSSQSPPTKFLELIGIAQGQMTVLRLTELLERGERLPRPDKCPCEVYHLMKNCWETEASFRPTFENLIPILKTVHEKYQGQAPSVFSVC
How it was run: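 Read-out was densitometry of chemiluminescent TYK2 immunoblot bands from RIPA lysates after SDS-PAGE. Before lysis, NOMO-1 cells cultured in RPMI 1640 plus 10% FBS were treated for 16 h at 0.1, 1, 10, 100 and 1000 nM.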

TYK2 [3] = biological target: T1, TYK2; assay: TYK2 protein levels in Jurkat cells by immunoblotting; design: endogenous in cells; conditions: 3 or 30 nM, 16 hours
Experimental: as §1, §3

JAK1, JAK2, and JAK3 = assay: Immunoblot of JAK1/2/3 protein levels in MOLT-4 cells (selectivity of TYK2 reduction); conditions: MOLT-4 cells, 0.04, 0.2, 1, and 5 μM, 24 hours
Experimental: MOLT-4 cells were treated with CPD-038, CPD-039, and CPD-040 at 0.04, 0.2, 1, and 5 μM concentrations for 24 hours.
as §2, §3

TYK2 [4] = biological target: T1, TYK2; assay: TYK2 protein degradation in MOLT-4 cells by immunoblotting; design: endogenous in cells; host or cells: MOLT-4; conditions: 24 hours; for TYK2 Degradation (0.5 μM) / TYK2 Degradation (5 μM): MOLT-4 cells; for Reduction of TYK2 protein levels over a dose range (FIG. 1): MOLT-4 cells, 0.04, 0.2, 1, and 5 μM
How it was run: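 Percent TYK2 degradation came from densitometry of chemiluminescent immunoblots of RIPA lysates. Before lysis, MOLT-4 cells had been treated for 24 h with each compound at 0.5 or 5 μM.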

Structure (SMILES) | Phosphorylation of STAT1 (Tyr701) and STAT3 (Tyr705) induced by IFNα (FIG. 3) [1] | TYK2 Degradation (NOMO-1, 10 nM) (TYK2 [2]) | TYK2 Degradation (NOMO-1, 100 nM) (TYK2 [2]) | Reduction of TYK2 protein levels over a dose range (FIG. 2) (TYK2 [2]) | TYK2 protein levels in Jurkat cells (FIG. 3) (TYK2 [3]) | Selectivity of TYK2 protein reduction over JAK1, JAK2, and JAK3 (FIG. 1) (JAK1, JAK2, and JAK3) | TYK2 Degradation (0.5 μM) (TYK2 [4]) [%] | TYK2 Degradation (5 μM) (TYK2 [4]) [%] | Reduction of TYK2 protein levels over a dose range (FIG. 1) (TYK2 [4])
CNC(=O)c1nnc(Nc2ccc(C(=O)NCCCCCCCCNc3cccc4c3C(=O)N(C3CCC(=O)NC3=O)C4=O)cn2)cc1Nc1cccc(-c2ncn(C)n2)c1OC (stereo not drawn) [CPD-158, 6-((5-((8-((2-(2,6-dioxopiperidin-3-yl)-1,3-dioxoisoindolin-4-yl)amino)octyl)carbamoyl)pyridin-2-yl)amino)-4-((2-methoxy-3-(1-methyl-1H-1,2,4-triazol-3-yl)phenyl)amino)-N-methylpyridazine-3-carboxamide] | concentration-dependently reduced phosphorylation of STAT1 (Tyr701) and STAT3 (Tyr705) induced by IFNα treatment; also recorded: significantly decreased STAT1/3 phosphorylation downstream of IFNα stimulation | A (A: ≥60% TYK2 degradation) | B (B: <60% TYK2 degradation, and >20% TYK2 degradation) | concentration-dependently reduced the TYK2 proteins levels; also recorded: highly potent in reducing TYK2 protein levels | reduced levels of TYK2 proteins |  |  |  | 
CNC(=O)c1nnc(NC(=O)CNC(=O)CCCCCCCCC(=O)N[C@H](C(=O)N2C[C@H](O)C[C@H]2C(=O)NCc2ccc(-c3scnc3C)cc2)C(C)(C)C)cc1Nc1cccc(-c2ncn(C)n2)c1OC [CPD-040, N1-((S)-1-((2S,4R)-4-hydroxy-2-((4-(4-methylthiazol-5-yl)benzyl)carbamoyl)pyrrolidin-1-yl)-3,3-dimethyl-1-oxobutan-2-yl)-N10-(2-((5-((2-methoxy-3-(1-methyl-1H-1,2,4-triazol-3-yl)phenyl)amino)-6-(methylcarbamoyl)pyridazin-3-yl)amino)-2-oxoethyl)decanediamide] |  |  |  |  |  | very selective at the reduction protein levels of TYK2 over JAK1, JAK2, and JAK3; also recorded: highly selective at the degradation of TYK2 over JAKT/2/3 proteins | 60 | 60 | concentration-dependently reduced the TYK2 proteins levels; also recorded: reduce TYK2 protein levels in a concentration-dependent manner
CNC(=O)c1nnc(Nc2ccc(C(=O)NCCCCCNc3cccc4c3C(=O)N(C3CCC(=O)NC3=O)C4=O)cn2)cc1Nc1cccc(-c2ncn(C)n2)c1OC (stereo not drawn) [CPD-155, 6-((5-((5-((2-(2,6-dioxopiperidin-3-yl)-1,3-dioxoisoindolin-4-yl)amino)pentyl)carbamoyl)pyridin-2-yl)amino)-4-((2-methoxy-3-(1-methyl-1H-1,2,4-triazol-3-yl)phenyl)amino)-N-methylpyridazine-3-carboxamide] | concentration-dependently reduced phosphorylation of STAT1 (Tyr701) and STAT3 (Tyr705) induced by IFNα treatment; also recorded: significantly decreased STAT1/3 phosphorylation downstream of IFNα stimulation | A (A: ≥60% TYK2 degradation) | A (A: ≥60% TYK2 degradation) | concentration-dependently reduced the TYK2 proteins levels; also recorded: highly potent in reducing TYK2 protein levels | reduced levels of TYK2 proteins |  |  |  | 
CNC(=O)c1nnc(NC(=O)CNC(=O)CCCCCCCC(=O)N[C@H](C(=O)N2C[C@H](O)C[C@H]2C(=O)NCc2ccc(-c3scnc3C)cc2)C(C)(C)C)cc1Nc1cccc(-c2ncn(C)n2)c1OC [CPD-039, N1-((S)-1-((2S,4R)-4-hydroxy-2-((4-(4-methylthiazol-5-yl)benzyl)carbamoyl)pyrrolidin-1-yl)-3,3-dimethyl-1-oxobutan-2-yl)-N9-(2-((5-((2-methoxy-3-(1-methyl-1H-1,2,4-triazol-3-yl)phenyl)amino)-6-(methylcarbamoyl)pyridazin-3-yl)amino)-2-oxoethyl)nonanediamide] |  |  |  |  |  | very selective at the reduction protein levels of TYK2 over JAK1, JAK2, and JAK3; also recorded: highly selective at the degradation of TYK2 over JAKT/2/3 proteins | 60 | 90 | concentration-dependently reduced the TYK2 proteins levels; also recorded: reduce TYK2 protein levels in a concentration-dependent manner
CNC(=O)c1nnc(Nc2ccc(C(=O)NCCCCCNc3ccc4c(c3)C(=O)N(C3CCC(=O)NC3=O)C4=O)cn2)cc1Nc1cccc(-c2ncn(C)n2)c1OC (stereo not drawn) [CPD-164, 6-((5-((5-((2-(2,6-dioxopiperidin-3-yl)-1,3-dioxoisoindolin-5-yl)amino)pentyl)carbamoyl)pyridin-2-yl)amino)-4-((2-methoxy-3-(1-methyl-1H-1,2,4-triazol-3-yl)phenyl)amino)-N-methylpyridazine-3-carboxamide] | concentration-dependently reduced phosphorylation of STAT1 (Tyr701) and STAT3 (Tyr705) induced by IFNα treatment; also recorded: significantly decreased STAT1/3 phosphorylation downstream of IFNα stimulation | A (A: ≥60% TYK2 degradation) | B (B: <60% TYK2 degradation, and >20% TYK2 degradation) |  | reduced levels of TYK2 proteins |  |  |  | 
CNC(=O)c1nnc(Nc2ccc(C(=O)NCCCCCCCCC(=O)N[C@H](C(=O)N3C[C@H](O)C[C@H]3C(=O)N[C@@H](C)c3ccc(-c4scnc4C)cc3)C(C)(C)C)cn2)cc1Nc1cccc(-c2ncn(C)n2)c1OC [CPD-144, 6-((5-((9-(((S)-1-((2S,4R)-4-hydroxy-2-(((S)-1-(4-(4-methylthiazol-5-yl)phenyl)ethyl)carbamoyl)pyrrolidin-1-yl)-3,3-dimethyl-1-oxobutan-2-yl)amino)-9-oxononyl)carbamoyl)pyridin-2-yl)amino)-4-((2-methoxy-3-(1-methyl-1H-1,2,4-triazol-3-yl)phenyl)amino)-N-methylpyridazine-3-carboxamide] |  | A (A: ≥60% TYK2 degradation) | A (A: ≥60% TYK2 degradation) |  |  |  |  |  | 
CNC(=O)c1nnc(Nc2ccc(N3CCN(C(=O)CCCCCCC(=O)N[C@H](C(=O)N4C[C@H](O)C[C@H]4C(=O)N[C@@H](C)c4ccc(-c5scnc5C)cc4)C(C)(C)C)CC3)cn2)cc1Nc1cccc(-c2ncn(C)n2)c1OC [CDP-112, 6-((5-(4-(8-(((S)-1-((2S,4R)-4-Hydroxy-2-(((S)-1-(4-(4-methylthiazol-5-yl)phenyl)ethyl)carbamoyl)pyrrolidin-1-yl)-3,3-dimethyl-1-oxobutan-2-yl)amino)-8-oxooctanoyl)piperazin-1-yl)pyridin-2-yl)amino)-4-((2-methoxy-3-(1-methyl-1H-1,2,4-triazol-3-yl)phenyl)amino)-N-methylpyridazine-3-carboxamide] |  | A (A: ≥60% TYK2 degradation) | A (A: ≥60% TYK2 degradation) |  |  |  |  |  | 
CNC(=O)c1nnc(NC(=O)CNC(=O)CCCCCCC(=O)N[C@H](C(=O)N2C[C@H](O)C[C@H]2C(=O)NCc2ccc(-c3scnc3C)cc2)C(C)(C)C)cc1Nc1cccc(-c2ncn(C)n2)c1OC [CPD-038, N1-((S)-1-((2S,4R)-4-hydroxy-2-((4-(4-methylthiazol-5-yl)benzyl)carbamoyl)pyrrolidin-1-yl)-3,3-dimethyl-1-oxobutan-2-yl)-N8-(2-((5-((2-methoxy-3-(1-methyl-1H-1,2,4-triazol-3-yl)phenyl)amino)-6-(methylcarbamoyl)pyridazin-3-yl)amino)-2-oxoethyl)octanediamide] |  |  |  |  |  | very selective at the reduction protein levels of TYK2 over JAK1, JAK2, and JAK3; also recorded: highly selective at the degradation of TYK2 over JAKT/2/3 proteins | 50 | 90 | concentration-dependently reduced the TYK2 proteins levels; also recorded: reduce TYK2 protein levels in a concentration-dependent manner
